Several values for one entry are separate records, joined by “and”; a condition that tells them apart may be missing. Equal entries are not always repeated.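 Grown in 96-well plates, cells were treated for 48 hours with each compound at five concentrations. Insufficient inhibition: endpoint recorded as highest concentration tested. GI50: concentration for 50% inhibition of growth. TGI is the concentration that stops growth completely.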
Key:
Experiment in all cases: inhibition of tumour cell growth, NCI panel, 48 h
IGROV1 ovarian = test system: IGROV1 ovarian
MDA-MB-435 = test system: MDA-MB-435
OVCAR-5 ovarian = test system: OVCAR-5 ovarian
UACC-62 melanoma = test system: UACC-62 melanoma
SK-MEL-5 melanoma = test system: SK-MEL-5 melanoma
KM12 colon = test system: KM12 colon
HCC-2998 colon = test system: HCC-2998 colon
T-47D breast = test system: T-47D breast
BT-549 breast = test system: BT-549 breast
RXF 393 renal = test system: RXF 393 renal

Compound | TGI (IGROV1 ovarian) | TGI (MDA-MB-435) [µM] | TGI (OVCAR-5 ovarian) | TGI (UACC-62 melanoma) [µM] | TGI (SK-MEL-5 melanoma) [µM] | TGI (KM12 colon) [µM] | TGI (HCC-2998 colon) [µM] | TGI (T-47D breast) [µM] | TGI (BT-549 breast) [µM] | TGI (RXF 393 renal) [µM] | GI50 (IGROV1 ovarian) | GI50 (OVCAR-5 ovarian) [µM] | GI50 (UACC-62 melanoma) [µM] | GI50 (HCC-2998 colon) [µM] | GI50 (RXF 393 renal) [µM] | GI50 (SK-MEL-5 melanoma) [µM] | GI50 (KM12 colon) | GI50 (MDA-MB-435) [µM] | GI50 (T-47D breast) [µM]
COc1cc2oc(=O)cc(C)c2cc1OC | > 100 µM | > 100 | > 100 µM | > 100 | > 100 | > 100 | – | – | – | – | – | – | – | – | – | – | – | – | –
COc1cccc(C23CCCC(C2)N(C)CC3OC(=O)c2ccccc2)c1OC (centres undefined) | 37.4 µM | 38.4 | > 100 µM | 84.5 | 27.4 | 61.3 | 78.1 | 81.2 | 44.9 | – | – | – | – | – | – | – | – | – | –
COc1cc(S(=O)(=O)Nc2ccc(-c3csc(/N=C\c4ccccc4)n3)cc2)ccc1Cl | > 100 µM | > 100 | > 100 µM | > 100 | > 100 | > 100 | – | > 100 | > 100 | > 100 | – | – | – | – | – | – | – | – | –
NC(=S)NNC(=S)NC(=O)c1ccco1 | > 10 µM | > 10 | > 10 µM | > 10 | > 10 | > 10 | > 10 | > 10 | – | > 10 | – | – | – | – | – | – | – | – | –
COC(=O)[C@](C)(Cc1ccccc1)NC(=O)[C@@H](C)N1[C@@H](c2ccccc2)COC1(C)C | > 100 µM | > 100 | > 100 µM | > 100 | > 100 | > 100 | – | > 100 | > 100 | > 100 | – | – | – | – | – | – | – | – | –
O=c1c(O)cccn1C1OC(CO)C(O)C1O (centres undefined) | > 100 µM | – | > 100 µM | > 100 | – | > 100 | > 100 | – | – | > 100 | – | – | – | – | – | – | – | – | –
O=c1c2cc(Br)ccc2ncn1COCc1ccccc1 | > 100 µM | > 100 | > 100 µM | > 100 | > 100 | > 100 | > 100 | – | – | > 100 | – | – | – | – | – | – | – | – | –
CCC1(OC(=O)CN)C(=O)OCc2c1cc1n(c2=O)Cc2cc3cc4c(cc3nc2-1)OCO4 (centres undefined) | 1.55 µM and 0.527 µM | – | 0.114 µM and 0.219 µM | < 0.01 | 0.0759 | – | 1.08 | – | – | 0.119 | 0.0975 µM and 0.0367 µM | < 0.01 | < 0.01 | 0.101 | 0.0158 | < 0.01 | 0.126 µM and 0.187 µM | – | –
CC(C)(C)C(=O)N1CCN(C=O)C1=S | > 100 µM | > 100 | > 100 µM | > 100 | – | > 100 | > 100 | > 100 | > 100 | 81.9 | – | – | – | – | – | – | – | – | –
CC(C)(CN1CCCCC1)C(/C=C/c1ccccc1)=N\NC(=O)N/N=C(/C=C/c1ccccc1)C(C)(C)CN1CCCCC1 | 6.07 µM | 2.86 | 15.4 µM | 2.89 | 3.1 | 3.86 | 1.86 | – | 3.23 | – | – | – | – | – | – | – | – | – | –
Cn1c(=O)n(CC2CS2)c2ccccc21 (centres undefined) | > 100 µM | – | > 100 µM | > 100 | – | > 100 | > 100 | – | – | > 100 | – | – | – | – | – | – | – | – | –
N#C/C(C(=O)Nc1ccccc1)=C(/N)N1CCCCC1 | > 100 µM | > 100 | > 100 µM | > 100 | > 100 | > 100 | > 100 | > 100 | > 100 | – | – | – | – | – | – | – | – | – | –
CC(=O)NC(=O)NC1=NCCC(=O)N1CCc1c[nH]c2ccccc12 | > 100 µM | > 100 | > 100 µM | > 100 | > 100 | > 100 | > 100 | > 100 | – | > 100 | – | – | – | – | – | – | – | – | –
Cc1nc(Nc2nc3ccccc3[nH]2)nc(Cl)c1CCCl | > 100 µM | > 100 | – | > 100 | > 100 | > 100 | – | > 100 | > 100 | – | – | – | – | – | – | – | – | – | –
C=C(CCOC)CCC1CCCCC(=C)[C@H]1O (some centres undefined) | > 100 µM | > 100 | > 100 µM | > 100 | > 100 | > 100 | – | > 100 | – | – | – | – | – | – | – | – | – | – | –
CN(C)CCNC(=O)c1cc(NC(=O)c2cc(NC(=O)CC/C=C3/[C@@H]4CC[C@H]3N=N4)cn2C)cn1C | > 100 µM | > 100 | > 100 µM | – | > 100 | > 100 | > 100 | – | > 100 | > 100 | – | – | – | – | – | – | – | – | –
CC1(C)[C@@H](OC(N)=O)C=C[C@]2(CO)[C@H]3CC[C@]4(C)[C@@H](c5ccc(=O)oc5)[C@@H](Cl)C[C@]4(O)C3=CC[C@@H]12 | 0.0284 µM and 0.0829 µM | 0.0215 | 0.0163 µM | 0.013 | 0.0158 | 0.0268 | 0.0776 | 0.0326 | – | – | 0.00313 µM and 0.0025 µM | 0.00426 | 0.00358 | 0.0113 | – | 0.00269 | 0.00456 µM | 0.00814 | 0.00359
COc1cc2oc(=O)cc(C)c2c(OC)c1OC(C)=O | > 100 µM | > 100 | > 100 µM | > 100 | > 100 | > 100 | – | – | – | – | – | – | – | – | – | – | – | – | –

From PubChem BioAssay (NCI)
